Format in all cases: cell-based, Human
Assay [1] deals with JAK/STAT signaling in NK-92 cells. Nature of the assay: JAK/STAT signaling Western blot and IL-2 stimulation assay in NK-92. Particulars: regular cell culture, inhibitor titration, three days. As for the experimental part: (§1) Total cell lysate was prepared with modified RIPA buffer (1M Tris-HCl (pH 7.5), 5M NaCl, 0.25% sodium deoxycholate, 10% NP-40 and 10 mM sodium fluoride) supplemented with ethylenediaminetetraacetic acid (EDTA)-free protease inhibitor (Roche™) and 2 mM sodium orthovanadate (Sigma-Aldrich™). Protein levels were quantified by bicinchoninic acid (BCA) assay. Protein lysate was separated by 10% SDS-PAGE and Western analysis was performed using primary antibodies listed in the tables below followed with horseradish peroxidase (HRP, 1:10,000, Jackson ImmunoResearch™) conjugated secondary antibodies.
For cytokine stimulation assay, NK-92 cells were pre-treated with L598 (30 μM) or vehicle control for three days. Before IL-2 stimulation, NK-92 cells were washed once with serum depleted cell media (no IL-2) and were starved for six hours in presence of L598 or vehicle control. After starvation, NK-92 cells were stimulated with IL-2 across a gradient concentration ranging from 0 to 90 IU/mL for 15 mins at 37° C. After incubation, cells were directly lysed with 2× concentrated TNE buffer and then boiled in 1× Laemmli Buffer to prepare cell lysates. Two independent experiments were performed.
For orientation: In western blotting, separated proteins are transferred to a membrane and probed.

The next assay deals with NK-92 cells. As to the kind of experiment: Lytic granule protein expression in NK-92 (flow cytometry, Western blot). The procedure: as §1
NK-92 cells pre-treated with L598 (30 μM) or vehicle control were stimulated with K-562 tumor target cells [effector: target (E:T) at 1:1] or PMA/lonomycin (1 μg/mL each) or no-stimulation control with K-562 complete media, respectively. Anti-CD107a or LAMP-1 antibody (1:100, PE/Cy7 conjugated, clone H4A3, from BioLegend®) was added to cells at the start of degranulation assay. Golgi stop (containing Monensin, 1 μM) and Golgi plug (containing Brefeldin A, 4 μg/mL) were added to cells one hour after degranulation assay started and were kept until the end of the 6-hour-degranulation assay. Intracellular staining of GrB (1:40, PE conjugated, clone QA18A28, from BioLegend®) and PRF (1:40, FITC conjugated, clone B-D48, from BioLegend®) were performed with the Fixation/Permeabilization Solution Kit (BD® Biosciences) according to the manufacture's protocol. Cells were stained with fixable viability dye (1:2000) for 20 mins on ice and in dark, and blocked with FcBlock (1:20, diluted in 1× Perm/Wash buffer, Human truStain FcX from BioLegend®) for 5 mins at room temperature and in dark before intracellular staining. Cell gating and percentage of population quantification was based on no-stimulation control. For kinetics of degranulation assay, measurements were taken over three hours at 15 mins, 30 mins, 60 mins, 120 mins and 180 mins, with L598 (30 μM, three days) treated group and vehicle control group under the condition of tumor target cell K-562 stimulation (E: T at 1:1) or no stimulation. Intracellular cytolytic granule contents GrA, GrB and PRF were measured as mentioned previously.
(Flow cytometry measures light scatter and fluorescence of single cells or particles in a stream.)

The subject of assay [2] is NK-92 cells against K-562 cells. As to the kind of experiment: NK-92 cytolytic assay against K-562 tumor target cells (flow cytometry). Particulars: three days. As for the experimental part: (§2) Human NK cell line NK-92 was purchased from American Type Culture Collection (ATCC) and cultured in α-MEM Essential Medium (no ribonucleoside and deoxyribonucleoside) supplemented with 0.2 mM Myo-inositol, 0.02 mM Folic Acid, 0.1 mM β-mercaptoethanol, 1% of Non-essential Amino Acids, 1×L-Glutamax, 1% of Penicillin/Streptomycin, 12.5% of heat-inactivated Horse, and 12.5% of heat-inactivated Characterized Fetal Bovine Serum or FBS. The media was supplemented freshly with 200 IU/mL of IL-2 upon cell thawing for one passage and 100 IU/mL of IL-2 for cell expansion. Human tumor cell lines K-562 and Reh were purchased from ATCC and were cultured in RPM11640 Medium supplemented with 1% of Penicillin/Streptomycin and 10% of heat inactivated FBS. HEK293T/17 cells and HCT116 cells were cultured in Dulbecco's Modified Eagle's Medium (DMEM) High Glucose Medium supplemented with 1% of Penicillin/Streptomycin and 10% of FBS. All cell lines were maintained in 5% CO2, 37° C. incubator, except that NK-92 were maintained in 6.5% CO2 incubator at 37° C. All cell lines were maintained below 30 passages and tested regularly for mycoplasma infection using PCR.
NK-92 anti-tumor cytolysis function was assessed by flow cytometry-based analysis. Tumor target cells K-562 and Reh were labelled with cell tracker CFSE ([…]) or CMRA (5 μM) according to manufacturer's protocol at a maximum of one day before cytolysis experiment. On the experiment day, labelled tumor target cells were washed once with PBS and resuspend to desired cell concentration in complete cell media. NK-92 cells were washed and resuspended in complete media without cytokines to desired cell concentration. NK-92 cells and tumor target cells were plated at various effector: target (E:T) ratios with basal cell numbers at 50,000 cells per well in round-bottom 96-well plate and were co-cultured for 3 hours in 5% CO2, 37° C. incubator. After co-culture, cells were washed once with ice-cold PBS and stained with fixable viability dyes: Aqua (Invitrogen™) or UV Blue (Invitrogen™) or eFluor 780 (eBioscience Invitrogen™) at 1:2000 in dark for 20 mins at 4° C. Stained cells were washed twice with ice cold PBS and were fixed with 1% Paraformaldehyde (PFA) for 1 hour or 2% PFA for 30 mins in dark at 4° C. Flow cytometry sample acquisition was performed with BDO LSRFortessa™ with a UV laser at Flow Cytometry Core Facility, McGill University, and data was analyzed with FlowJo™ 10.7.1 and summarized with Prism™ 9 (GraphPad™). Calculation for % of specific cytolysis was followed by the equation: […]

Assay [3] has as its system NK-92 cells against Reh cells. Nature of the assay: NK-92 cytolytic assay against NK resistant Reh target cells. Particulars: 30 μM three days, IL-2 100 IU/mL, 3 h assay. The procedure: as §2, with “All cell lines were maintained below 30 passages and tested regularly for mycoplasma infection using PCR.” left out
NK-92 anti-tumor cytolysis function was assessed by flow cytometry-based analysis. […] Flow cytometry sample acquisition was performed with BDO LSRFortessa™ with a UV laser at Flow Cytometry Core Facility, McGill University, and data was analyzed with FlowJo™ 10.7.1 and summarized with Prism™ 9 (GraphPad™). […]

As to KQ791, the “phosphorylation of STAT2 and STAT6” value in assay [1] is given as “relatively stable”. For the same molecule, in assay [1] (dosage dependent), the “phosphorylation of STAT1, STAT3, STAT4 and STAT5” value is listed as “increased phosphorylation”. The “protein expression of perforin and granzyme B” value in the assay on NK-92 cells (gradual increasing concentration, three days) is listed as “upregulated in a dosage dependent manner”. Also, the “granzyme A protein expression” value in the assay on NK-92 cells (with or without inhibitor treatment) is listed as “relatively stable”. For the same molecule, in assay [2] (dosage increased up to 90 μM, various E:T ratios), the “tumor cytolysis by NK-92 against K-562 with inhibitor titration” value was “gradual increasing of tumor cytolysis”. In assay [3], the “NK-92 cytolysis towards NK resistant target cells Reh” value is on record as “had no effect”.
For the molecule “TGF-β1: immune regulatory cytokine added to NK-92 culture”, the “effect of added TGF-β1 on NK-92 cytolysis against K-562” value in assay [2] (TGF-β 10 ng/mL, IL-2 media) is “significantly reduced”.

B1: IL-4: Th2 cytokine IL-4 added to NK-92 culture (protein, UniProt P05112 25-153, looked up)
Interleukin-4: HKCDITLQEIIKTLNSLTEQKTLCTELTVTDIFAASKNTTEKETFCRAATVLRQFYSHHEKDTRCLGATAQQFHRHKQLIRFLKRLDRNLWGLAGLNSCPVKEANQSTLENFLERLKTIMREKYSKCSS
Take B1: the “effect of added IL-4 on NK-92 cytolysis against K-562” value in assay [2] (IL-4 10 ng/mL, IL-2 media, with or without L598) is on record as “did not reduce nor improve”.

The values above are taken from patent publication US20250025500A1, “PHOSPHATASE INHIBITORS AS NK CELLS MODULATORS FOR THE TREATMENT OF CANCER” (Kanyr Pharma Inc., priority 2021, published 2025).
